Data taken from patent publication US20240041042A1, “1-(PYRIDYL)-5-AZINYLPYRAZOLE DERIVATIVES, AND THEIR USE FOR CONTROL OF UNDESIRED PLANT GROWTH” (Bayer Aktiengesellschaft, priority 2020, published 2024).
Like-named read-outs stand apart in the source and are kept apart here.

Legend:
Format in all cases: in vivo
[1] = test system: Verconica persica (VERPE); test: Post-emergence herbicidal action against VERPE
How it was run: (§1)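 Post-emergence greenhouse spray, one-leaf stage, 600 l/ha water plus 0.5% additive; WP or EC formulations; application rates 320 g/ha or lower. Visual % damage vs untreated controls at ~3 weeks.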

[2] = test system: Polygonum convolvulus (POLCO); test: Pre-emergence herbicidal action against POLCO
How it was run: (§2)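 Read-out is visual percent damage relative to untreated pots, with 100% meaning dead plants and 0% meaning no difference, assessed roughly three weeks after treatment. Compounds were applied pre-emergence to the covering soil at up to 320 g/ha.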

[3] = test system: Alopecurus myosuroides (ALOMY); test: Post-emergence herbicidal action against ALOMY; conditions: visual rating about 3 weeks after treatment vs untreated controls (100% = plants have died, 0% = like control plants)
How it was run: as §1

[4] = test system: Pharbitis purpurea (PHBPU); test: Post-emergence herbicidal action against PHBPU
How it was run: as §1

Viola tricolor (VIOTR) [5] = test: Pre-emergence herbicidal action against VIOTR
How it was run: as §2

[6] = test system: Pharbitis purpurea (PHBPU); test: Pre-emergence herbicidal action against PHBPU
How it was run: as §2

[7] = test system: Abutilon theophrasti (ABUTH); test: Pre-emergence herbicidal action against ABUTH; conditions: 100% = plants have died
How it was run: as §2

[8] = test system: Matricaria inodora (MATIN); test: Post-emergence herbicidal action against MATIN; conditions: dosage 320 g/ha
How it was run: as §1

Setaria viridis (SETVI) [9] = test: Pre-emergence herbicidal action against SETVI
How it was run: as §2

[10] = test system: Echinochloa crus-galli (ECHCG); test: Post-emergence herbicidal action against ECHCG
How it was run: as §1

[11] = test system: Amaranthus retroflexus (AMARE); test: Pre-emergence herbicidal action against AMARE; conditions: visual scoring after about 3 weeks vs untreated controls
How it was run: as §2

Viola tricolor (VIOTR) [12] = test: Post-emergence herbicidal action against VIOTR
How it was run: as §1

[13] = test system: Verconica persica (VERPE); test: Pre-emergence herbicidal action against VERPE
How it was run: as §2

[14] = test system: Matricaria inodora (MATIN); test: Pre-emergence herbicidal action against MATIN
How it was run: as §2

[15] = test system: Amaranthus retroflexus (AMARE); test: Post-emergence herbicidal action against AMARE
How it was run: as §1

[16] = test system: Echinochloa crus-galli (ECHCG); test: Pre-emergence herbicidal action against ECHCG
How it was run: as §2

Avena fatua (AVEFA) [17] = test: Post-emergence herbicidal action against AVEFA; conditions: visual rating about 3 weeks after treatment
How it was run: as §1

Setaria viridis (SETVI) [18] = test: Post-emergence herbicidal action against SETVI
How it was run: as §1

Avena fatua (AVEFA) [19] = test: Pre-emergence herbicidal action against AVEFA; conditions: visual scoring after about 3 weeks vs untreated controls
How it was run: as §2

[20] = test system: Alopecurus myosuroides (ALOMY); test: Pre-emergence herbicidal action against ALOMY; conditions: scored visually after about 3 weeks, 100% = plants have died
How it was run: as §2

Oryza sativa (ORYSA) = conditions: crop plant compatibility
How it was run: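 Percent effect on the crop was judged by eye against untreated controls, where 0% means like control and 100% means dead plants. Plants had been sprayed post-emergence at the one-leaf stage and then kept under optimum greenhouse conditions for about 3 weeks.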

Lolium rigidum (LOLRI) [21] = test: Post-emergence herbicidal action against LOLRI; conditions: dosage 80 g/ha
How it was run: as §1

[22] = test system: Abutilon theophrasti (ABUTH); test: Post-emergence herbicidal action against ABUTH; conditions: 80 g/ha, visual rating about 3 weeks after treatment vs untreated controls (100% = plants have died, 0% = like control plants)
How it was run: as §1

[23] = test system: Polygonum convolvulus (POLCO); test: Post-emergence herbicidal action against POLCO; conditions: dosage 80 g/ha
How it was run: as §1

Lolium rigidum (LOLRI) [24] = test: Pre-emergence herbicidal action against LOLRI
How it was run: as §2

[25] = Dosage column 320 g/ha (title prints 3200 g/ha), scored visually after about 3 weeks
[26] = 80 g/ha, visual rating about 3 weeks after treatment vs untreated controls (100% = plants have died, 0% = like control plants)
[27] = 80 g/ha, effect in comparison to untreated controls
[28] = 80 g/ha, scored visually after about 3 weeks vs untreated controls, 0% = like control plants
[29] = 20 g/ha, effect vs untreated controls

| SMILES | Post-emergence action against VERPE in % ([1]; dosage 80 g/ha) [%] | Pre-emergence action against POLCO in % ([2]; dosage 80 g/ha) [%] | Pre-emergence action against POLCO in % ([2]; dosage 320 g/ha) [%] | Post-emergence action against ALOMY in % ([3]; 80 g/ha) [%] | Pre-emergence action against VIOTR in % (Viola tricolor (VIOTR) [5]; 320 g/ha, Viola tricolor) [%] | Pre-emergence action against VIOTR in % (Viola tricolor (VIOTR) [5]; dosage 80 g/ha) [%] | Pre-emergence action against PHBPU in % ([6]; dosage 320 g/ha) [%] | Pre-emergence action against ABUTH [7, 25] [%] | Pre-emergence action against SETVI in % (Setaria viridis (SETVI) [9]; dosage 320 g/ha) [%] | Pre-emergence action against AMARE in % ([11]; 80 g/ha) [%] | Pre-emergence action against AMARE in % ([11]; 320 g/ha) [%] | Pre-emergence action against VERPE in % ([13]; dosage 320 g/ha) [%] | Pre-emergence action against MATIN in % ([14]; dosage 320 g/ha) [%] | Post-emergence action against AMARE in % [15, 26] [%] | Pre-emergence action against ECHCG in % ([16]; dosage 320 g/ha) [%] | Post-emergence action against SETVI in % (Setaria viridis (SETVI) [18]; dosage 80 g/ha) [%] | Pre-emergence action against AVEFA in % (Avena fatua (AVEFA) [19]; 320 g/ha) [%] | Pre-emergence action against ALOMY ([20]; 80 g/ha) [%] | Pre-emergence action against ALOMY ([20]; 320 g/ha) [%] | Post-emergence action against ORYSA in % (Oryza sativa (ORYSA); [27]) [%] | also measured |
| --- | --- | --- | --- | --- | --- | --- | --- | --- | --- | --- | --- | --- | --- | --- | --- | --- | --- | --- | --- | --- | --- |
| Cc1cccnc1-n1nc(OCC(=O)O)c(Br)c1-c1cncc(F)c1 [Example I-204] | 90 | 90 | 90 | 90 | 100 | 100 | 90 | 80 | 100 | 90 | 100 | 100 | 90 | 80 | 100 | 90 | 80 | 90 | 100 | 0 | Post-emergence action against VERPE in % ([1]; 320 g/ha, VERPE): 90%; Post-emergence action against ALOMY in % ([3]; 320 g/ha): 90%; Post-emergence action against PHBPU in % ([4]; dosage 320 g/ha): 80%; Pre-emergence action against PHBPU in % ([6]; dosage 80 g/ha): 90%; Post-emergence action against MATIN in % [8]: 80%; Pre-emergence action against SETVI in % (Setaria viridis (SETVI) [9]; dosage 80 g/ha): 90%; Post-emergence action against ECHCG in % ([10]; dosage 80 g/ha): 80%; Post-emergence action against ECHCG in % ([10]; dosage 320 g/ha): 80%; Post-emergence action against VIOTR in % (Viola tricolor (VIOTR) [12]; 80 g/ha): 80%; Post-emergence action against VIOTR in % (Viola tricolor (VIOTR) [12]; 320 g/ha): 80%; Post-emergence action against AMARE in % ([15]; 320 g/ha, visual rating about 3 weeks after treatment): 80%; Pre-emergence action against ECHCG in % ([16]; dosage 80 g/ha): 90%; Post-emergence action against AVEFA in % (Avena fatua (AVEFA) [17]; 320 g/ha): 80%; Post-emergence action against SETVI in % (Setaria viridis (SETVI) [18]; dosage 320 g/ha): 90% |
| COC(=O)CCOC(=O)[C@@H](C)Oc1nn(-c2ccccn2)c(-c2cncc(F)c2)c1Br [Example I-73] | 80 | 80 | 90 | 100 | 100 | 100 | 90 | 90 | 100 | 100 | 100 | 100 | 90 | 90 | 90 | 80 | 80 | 90 | 100 | 10 | Post-emergence action against LOLRI in % (Lolium rigidum (LOLRI) [21]): 80%; Post-emergence action against ABUTH in % [22]: 80%; Post-emergence action against PHBPU in % ([4]; dosage 80 g/ha): 90%; Post-emergence action against POLCO in % [23]: 90%; Pre-emergence action against ABUTH [7, 28]: 80%; Pre-emergence action against SETVI in % (Setaria viridis (SETVI) [9]; dosage 80 g/ha): 90%; Post-emergence action against ECHCG in % ([10]; dosage 80 g/ha): 80%; Pre-emergence action against LOLRI in % (Lolium rigidum (LOLRI) [24]; dosage 80 g/ha): 100%; Pre-emergence action against LOLRI in % (Lolium rigidum (LOLRI) [24]; dosage 320 g/ha): 100%; Post-emergence action against AVEFA in % (Avena fatua (AVEFA) [17]; 80 g/ha): 80%; Post-emergence action against ORYSA in % (Oryza sativa (ORYSA); [29]): 0% |
| O=C(O)COc1nn(-c2ccccn2)c(-c2cncc(F)c2)c1Br [Example I-84] | 80 | – | 90 | 80 | 100 | 90 | 90 | 80 | 100 | 80 | 100 | 100 | 90 | 90 | 100 | 80 | 90 | 80 | 100 | 10 | Post-emergence action against LOLRI in % (Lolium rigidum (LOLRI) [21]): 90%; Post-emergence action against ABUTH in % [22]: 80%; Post-emergence action against PHBPU in % ([4]; dosage 80 g/ha): 90%; Post-emergence action against POLCO in % [23]: 90%; Pre-emergence action against PHBPU in % ([6]; dosage 80 g/ha): 90%; Post-emergence action against ECHCG in % ([10]; dosage 80 g/ha): 80%; Pre-emergence action against VERPE in % ([13]; dosage 80 g/ha): 90%; Pre-emergence action against MATIN in % ([14]; dosage 80 g/ha): 90%; Pre-emergence action against ECHCG in % ([16]; dosage 80 g/ha): 80%; Pre-emergence action against LOLRI in % (Lolium rigidum (LOLRI) [24]; dosage 80 g/ha): 90%; Pre-emergence action against LOLRI in % (Lolium rigidum (LOLRI) [24]; dosage 320 g/ha): 100%; Post-emergence action against AVEFA in % (Avena fatua (AVEFA) [17]; 80 g/ha): 80%; Pre-emergence action against AVEFA in % (Avena fatua (AVEFA) [19]; 80 g/ha): 80%; Post-emergence action against ORYSA in % (Oryza sativa (ORYSA); [29]): 0% |
| C[C@@H](Oc1nn(-c2ccccn2)c(-c2cncc(F)c2)c1Br)C(=O)O [Example I-79] | 80 | 90 | 90 | 80 | 100 | 100 | 90 | 90 | 100 | 100 | 100 | 100 | 90 | 90 | 100 | 80 | 100 | 90 | 100 | 0 | Post-emergence action against ABUTH in % [22]: 80%; Post-emergence action against PHBPU in % ([4]; dosage 80 g/ha): 80%; Post-emergence action against POLCO in % [23]: 80%; Pre-emergence action against PHBPU in % ([6]; dosage 80 g/ha): 90%; Pre-emergence action against ABUTH [7, 28]: 80%; Pre-emergence action against SETVI in % (Setaria viridis (SETVI) [9]; dosage 80 g/ha): 100%; Pre-emergence action against VERPE in % ([13]; dosage 80 g/ha): 80%; Pre-emergence action against MATIN in % ([14]; dosage 80 g/ha): 80%; Pre-emergence action against ECHCG in % ([16]; dosage 80 g/ha): 80%; Pre-emergence action against LOLRI in % (Lolium rigidum (LOLRI) [24]; dosage 80 g/ha): 100%; Pre-emergence action against LOLRI in % (Lolium rigidum (LOLRI) [24]; dosage 320 g/ha): 100%; Post-emergence action against AVEFA in % (Avena fatua (AVEFA) [17]; 80 g/ha): 100%; Post-emergence action against ORYSA in % (Oryza sativa (ORYSA); [29]): 0% |
